Measurements as given in ChEMBL document CHEMBL1141670, “QSAR analysis of 1,3-diaryl-4,5,6,7-tetrahydro-2H-isoindole derivatives as selective COX-2 inhibitors” (Eur J Med Chem, 2008).

Target: T1, Prostaglandin G/H synthase 2 (Mus musculus, UniProt Q05769)
T1 sequence (Q05769 whole entry): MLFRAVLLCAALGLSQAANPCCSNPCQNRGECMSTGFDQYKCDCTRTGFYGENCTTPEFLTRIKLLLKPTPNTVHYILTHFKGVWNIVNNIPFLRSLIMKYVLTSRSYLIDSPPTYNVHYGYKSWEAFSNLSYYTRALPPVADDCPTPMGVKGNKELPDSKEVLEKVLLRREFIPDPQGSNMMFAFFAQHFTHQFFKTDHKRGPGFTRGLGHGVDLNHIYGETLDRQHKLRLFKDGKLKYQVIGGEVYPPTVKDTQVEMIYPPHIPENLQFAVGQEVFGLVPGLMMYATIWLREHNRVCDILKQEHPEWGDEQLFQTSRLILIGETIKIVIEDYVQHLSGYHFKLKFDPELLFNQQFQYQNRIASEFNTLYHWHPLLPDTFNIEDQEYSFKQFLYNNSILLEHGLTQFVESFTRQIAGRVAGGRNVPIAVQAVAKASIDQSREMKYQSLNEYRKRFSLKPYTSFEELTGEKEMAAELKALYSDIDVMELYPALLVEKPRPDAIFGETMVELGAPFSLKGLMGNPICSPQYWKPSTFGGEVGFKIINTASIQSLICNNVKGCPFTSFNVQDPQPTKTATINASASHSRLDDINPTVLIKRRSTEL
Assay: Inhibition of mouse macrophage COX2

Row | IC50 [nM] | SMILES
1 | 16.7 | Cc1ccc(-c2[nH]c(-c3ccc(C)cc3)c3c2CCCC3)cc1
2 | 10000 | CS(=O)(=O)c1ccc(-c2[nH]c(-c3ccc(S(C)(=O)=O)cc3)c3c2C2CCC3C2)cc1
3 | 1000 | CC1=C(C)Cc2c(c(-c3ccccc3)n(C)c2-c2ccccc2)C1
